These are literature values, as cited in patent publication US20230175054A1, “LASH METHODS FOR SINGLE MOLECULE SEQUENCING & TARGET NUCLEIC ACID DETECTION” (SARMAL, INC., priority 2020, published 2023).

One series deals with T1, Apoaequorin (Aequorea victoria, UniProt P02592).
T1 sequence (P02592 8-196): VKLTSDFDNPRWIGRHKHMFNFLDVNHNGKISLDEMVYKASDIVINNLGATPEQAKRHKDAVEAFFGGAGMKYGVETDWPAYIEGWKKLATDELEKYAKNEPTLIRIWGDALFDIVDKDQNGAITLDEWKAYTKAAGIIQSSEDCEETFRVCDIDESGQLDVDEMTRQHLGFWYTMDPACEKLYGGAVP
The settings on record: luminescence emission with Apoaequorin.
In the case of `Oc1ccc(Cc2nc3c(CC4CCCC4)nc(-c4ccc(O)cc4)cn3c2O)cc1` [Cp, Coelenterazine cp], the “λem (nm)” value is 442 nm.
As to `Oc1ccc(Cc2nc3c(Cc4ccccc4)nc(-c4ccc(O)cc4)cn3c2O)cc1` [Native, Coelenterazine], the “λem (nm)” value was 465 nm.
On to `Oc1ccc(-c2cn3c(O)c(Cc4ccc(F)cc4)nc3c(CC3CCCC3)n2)cc1` [fcp, Coelenterazine fcp], for which the “λem (nm)” value is listed as 452 nm.
As for `Oc1ccc(-c2cn3c(O)c(Cc4ccccc4)nc3c(CC3CCCC3)n2)cc1` [hcp, Coelenterazine hcp], the “λem (nm)” value was 444 nm.
With `O=c1c(Cc2ccc(I)cc2)nc2c(Cc3ccccc3)[nH]c(-c3ccc(O)cc3)cn1-2` [i, Coelenterazine i], the “λem (nm)” value was 476 nm.
In the case of Coelenterazine f, the “λem (nm)” value is listed as 473 nm.
Turning to Coelenterazine h, the “λem (nm)” value was 475 nm.
Regarding Coelenterazine ip, the “λem (nm)” value is 441 nm.
Take Coelenterazine n: the “λem (nm)” value is reported as 467 nm.

Staying with this series, now noted: with Apoaequorin.
In the case of `Oc1ccc(Cc2nc3c(CC4CCCC4)nc(-c4ccc(O)cc4)cn3c2O)cc1` [Cp, Coelenterazine cp], the “Half-rise time” value was 0.15 to 0.3 s, the Relative intensity is listed as 15 and the Relative luminescence capacity was 0.95.
`Oc1ccc(Cc2nc3c(Cc4ccccc4)nc(-c4ccc(O)cc4)cn3c2O)cc1` [Native, Coelenterazine]: the “Half-rise time” value is 0.4 to 0.8 s, the Relative intensity is 1.00 and the Relative luminescence capacity is reported as 1.0.
`Oc1ccc(-c2cn3c(O)c(Cc4ccc(F)cc4)nc3c(CC3CCCC3)n2)cc1` [fcp, Coelenterazine fcp]: the “Half-rise time” value is 0.4 to 0.8 s, the Relative intensity is recorded as 135 and the Relative luminescence capacity is listed as 0.57.
With `Oc1ccc(-c2cn3c(O)c(Cc4ccccc4)nc3c(CC3CCCC3)n2)cc1` [hcp, Coelenterazine hcp], the Relative intensity was 190 and the Relative luminescence capacity was 0.67.
On to `O=c1c(Cc2ccc(I)cc2)nc2c(Cc3ccccc3)[nH]c(-c3ccc(O)cc3)cn1-2` [i, Coelenterazine i], for which the “Half-rise time” value is on record as 8 s, the Relative intensity is listed as 0.03 and the Relative luminescence capacity is 0.70.
Coelenterazine f: the “Half-rise time” value is 0.4 to 0.8 s, the Relative intensity is 18 and the Relative luminescence capacity is recorded as 0.80.
Regarding Coelenterazine h, the “Half-rise time” value is 0.4 to 0.8 s, the Relative intensity is given as 10 and the Relative luminescence capacity is reported as 0.82.
As to Coelenterazine ip, the “Half-rise time” value was 1 s, the Relative intensity is on record as 47 and the Relative luminescence capacity is 0.54.
In the case of Coelenterazine n, the “Half-rise time” value is 5 s, the Relative intensity is 0.01 and the Relative luminescence capacity is listed as 0.26.

Another series concerns the target T2, Renilla Luciferase (Renilla reniformis, UniProt P27652).
T2 sequence (P27652 1-311): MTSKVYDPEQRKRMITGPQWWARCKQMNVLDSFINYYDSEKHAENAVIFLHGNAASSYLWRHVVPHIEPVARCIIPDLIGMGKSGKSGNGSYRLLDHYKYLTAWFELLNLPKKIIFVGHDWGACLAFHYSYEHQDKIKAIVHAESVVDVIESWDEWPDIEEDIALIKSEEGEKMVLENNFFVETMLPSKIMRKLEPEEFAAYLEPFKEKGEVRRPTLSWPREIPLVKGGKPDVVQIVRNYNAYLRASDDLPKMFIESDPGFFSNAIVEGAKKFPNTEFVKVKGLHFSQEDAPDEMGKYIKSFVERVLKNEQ
To be noted: luminescence emission with Renilla Luciferase.
Consider `Oc1ccc(Cc2nc3c(CC4CCCC4)nc(-c4ccc(O)cc4)cn3c2O)cc1` [Cp, Coelenterazine cp], for which the “λem (nm)” value is recorded as 470 nm.
Take Coelenterazine f: the “λem (nm)” value is reported as 473 nm.

The same series, now with this note: with Renilla Luciferase.
Take `Oc1ccc(Cc2nc3c(CC4CCCC4)nc(-c4ccc(O)cc4)cn3c2O)cc1` [Cp, Coelenterazine cp]: the “Initial Intensity (%)” value is on record as 135% and the “Total Light (%)” value is 23%.
For the molecule Coelenterazine f, the “Initial Intensity (%)” value is on record as 45% and the “Total Light (%)” value is 28%.
